Source: US20240132464A1, “HETEROCYCLIC COMPOUNDS AS E3 LIGASE INHIBITORS” (Accutar Biotechnology Inc., priority 2022, published 2024)

Molecular target: T1, GID4 (Uniprot ID: Q81VV7, residues 124-289) (Homo sapiens, UniProt Q8IVV7)
T1 construct: GID4 (Uniprot ID: Q81VV7, residues 124-289)
T1 sequence (Q8IVV7 124-289): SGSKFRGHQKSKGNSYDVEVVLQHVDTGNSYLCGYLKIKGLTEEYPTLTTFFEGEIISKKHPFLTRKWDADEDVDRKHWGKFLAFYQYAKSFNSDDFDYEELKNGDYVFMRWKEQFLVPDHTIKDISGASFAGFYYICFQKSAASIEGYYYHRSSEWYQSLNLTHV
Assay: GID4 competitive binding assay (AlphaScreen, GID4/degron peptide PGLW)
Details: 24 nM GID4, 48 nM biotinylated degron peptide PGLW, 4° C., read-out: IC50 (Inhibition of GID4/Degron binding by test compounds)
In short: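 His-tagged human GID4 (residues 124-289, 24 nM) pre-incubated 2 h at 4 °C with 48 nM biotinylated PGLW peptide and compound in HEPES pH 7.5 buffer, 2% DMSO (final). AlphaScreen streptavidin donor/Ni-NTA acceptor beads added for 1 h; IC50 from nonlinear fit of % inhibition versus DMSO.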

Row | IC50 [nM] | Structure (SMILES)
1 | > 5000 | CC(C)c1cc(N2CCn3cncc3C2)nc(N)n1 [Compound 182, 4-(5,6-dihydroimidazo[1,5-a]pyrazin-7(8H)-yl)-6-isopropylpyrimidin-2-amine]
2 | > 5000 | CNc1cc(N2CCCC(n3nc4ccccc4n3)C2)nc(N)n1 (stereo not shown) [Compound 259, 6-(3-(2H-benzo[d][1,2,3]triazol-2-yl)piperidin-1-yl)-N4-methylpyrimidine-2,4-diamine]
3 | 500 to 5000 | CC(C)c1cc(N2Cc3ccnn3C(c3ccccc3Br)C2)nc(N)n1 (stereo not shown) [Compound 2, 4-(7-(2-bromophenyl)-6,7-dihydropyrazolo[1,5-a]pyrazin-5(4H)-yl)-6-isopropylpyrimidin-2-amine]
4 | 500 to 5000 | CNc1cc(N2CCC[C@@H](c3ccccc3Br)C2)nc(NC)n1 (stereo in doubt) [Compound 84, (S/R)-6-(3-(2-bromophenyl)piperidin-1-yl)-N2,N4-dimethylpyrimidine-2,4-diamine]
5 | < 500 | CNc1nc(C(C)C)cc(N2CCCC(c3cnc4ccccn34)C2)n1 (stereo not shown) [Compound 134, 4-(3-(imidazo[1,2-a]pyridin-3-yl)piperidin-1-yl)-6-isopropyl-N-methylpyrimidin-2-amine]
6 | > 5000 | CC(C)c1cc(N2CCNC(c3nnc4ccccn34)C2)nc(N)n1 (stereo not shown) [Compound 188, 4-(3-([1,2,4]triazolo[4,3-a]pyridin-3-yl)piperazin-1-yl)-6-isopropylpyrimidin-2-amine]
7 | > 5000 | CNc1cc(N2CCCC(n3nnc4ccccc43)C2)nc(N)n1 (stereo not shown) [Compound 93, 6-(3-(1H-benzo[d][1,2,3]triazol-1-yl)piperidin-1-yl)-N4-methylpyrimidine-2,4-diamine]
8 | 500 to 5000 | CNc1cc(N2CCN(C)[C@H](c3ccccc3Br)C2)nc(N)n1 (stereo in doubt) [Compound 154]
9 | < 500 | CN(C)CCCNC(=O)c1ncc(-c2cc(O)c3ncccc3c2)[nH]1 [Compound 275, N-(3-(dimethylamino)propyl)-5-(8-hydroxyquinolin-6-yl)-1H-imidazole-2-carboxamide]
10 | 500 to 5000 | Cc1c(-c2ccc(Br)c(C3CN(c4cc(N)nc(N)n4)CCN3)c2)cnn1C (single isomer, unassigned) [Compound 4, (R/S)-6-(3-(2-bromo-5-(1,5-dimethyl-1H-pyrazol-4-yl)phenyl)piperazin-1-yl)pyrimidine-2,4-diamine]
11 | 500 to 5000 | Nc1cc(N2CCN(CCO)[C@H](c3ccccc3Br)C2)nc(NC2CC2)n1 (stereo in doubt) [Compound 70, (R/S)-2-(4-(6-amino-2-(cyclopropylamino)pyrimidin-4-yl)-2-(2-bromophenyl)piperazin-1-yl)ethan-1-ol]
12 | < 500 | CC(C)c1nc(N2CCNC(c3cnc4ccccn34)C2)c2cc[nH]c2n1 (stereo not shown) [Compound 375, 4-(3-(imidazo[1,2-a]pyridin-3-yl)piperazin-1-yl)-2-isopropyl-7H-pyrrolo[2,3-d]pyrimidine]
13 | > 5000 | NC(=O)CCC1CCCN(c2nc(N)nc3c2CSC3)C1 (stereo not shown) [Compound 201, 3-(1-(2-amino-5,7-dihydrothieno[3,4-d]pyrimidin-4-yl)piperidin-3-yl)propanamide]
14 | < 500 | Nc1nc(NC2CC2)cc(N2CCN(CCO)[C@@H](c3ccccc3Br)C2)n1 (racemic) [Compound 45, (S/R)-2-(4-(2-amino-6-(cyclopropylamino)pyrimidin-4-yl)-2-(2-bromophenyl)piperazin-1-yl)ethan-1-ol]
15 | > 5000 | Nc1nc(N2CCCC(c3ccn[nH]3)C2)c2sccc2n1 (stereo not shown) [Compound 217, 4-(3-(1H-pyrazol-5-yl)piperidin-1-yl)thieno[3,2-d]pyrimidin-2-amine]
16 | < 500 | Nc1nc(NCC2CC2)cc(N2CCOC(c3ccccc3Br)C2)n1 (single isomer, unassigned) [Compound 78, R or S-6-(2-(2-bromophenyl)morpholino)-N^4-(cyclopropylmethyl)pyrimidine-2,4-diamine]

Row | IC50 [nM] | Structure (SMILES)
17 | 500 to 5000 | CN(C)CCCNC(=O)c1c(F)cc(-c2cc(O)c3ncccc3c2)cc1F [Compound 314, N-(3-(dimethylamino)propyl)-2,6-difluoro-4-(8-hydroxyquinolin-6-yl)benzamide]
18 | 500 to 5000 | CN(C)CCCNC(=O)c1ccc(-c2cc(O)c3ncccc3c2)cc1Br [Compound 313, 2-bromo-N-(3-(dimethylamino)propyl)-4-(8-hydroxyquinolin-6-yl)benzamide]
19 | 500 to 5000 | Cc1c(-c2ccc(C(=O)NCCCN(C)C)cc2)cc(O)c2ncccc12 [Compound 319, N-(3-(dimethylamino)propyl)-4-(8-hydroxy-5-methylquinolin-6-yl)benzamide]
20 | < 500 | CC(C)c1cc(N2CCNC(c3ccccc3I)C2)nc(N)n1 (stereo not shown) [Compound 176, 4-(3-(2-iodophenyl)piperazin-1-yl)-6-isopropylpyrimidin-2-amine]
21 | < 500 | CN(C)CCCNC(=O)c1ccc(-c2cc(O)c3ncccc3c2)s1 [Compound 296, N-(3-(dimethylamino)propyl)-5-(8-hydroxyquinolin-6-yl)thiophene-2-carboxamide]
22 | < 500 | CN1CCC(NC(=O)c2n[nH]c3ccc(-c4ccc5ccnc(N)c5c4)cc23)CC1 [Compound 338, 5-(1-aminoisoquinolin-7-yl)-N-(1-methylpiperidin-4-yl)-1H-indazole-3-carboxamide]
23 | > 5000 | Nc1nc(NC2CC2)nc(N2CCN[C@H](c3ccccc3Br)C2)n1 (stereo in doubt) [Compound 64, (R/S)-6-(3-(2-bromophenyl)piperazin-1-yl)-N2-cyclopropyl-1,3,5-triazine-2,4-diamine]
24 | < 500 | CNc1nc(N)cc(N2CCNC(c3ccccc3Br)C2)n1 (racemic) [Compound 114, (S/R)-6-(3-(2-bromophenyl)piperazin-1-yl)-N2-methylpyrimidine-2,4-diamine]
25 | < 500 | Nc1cc(N2CCNC(c3ccccc3C(F)(F)F)C2)nc(N)n1 (stereo not shown) [Compound 54, 6-(3-(2-(trifluoromethyl)phenyl)piperazin-1-yl)pyrimidine-2,4-diamine]
26 | > 5000 | Nc1nc(NC2CC2)cc(N2CCO[C@@H](c3ccccc3)C2)n1 (racemic) [Compound 95, (S/R)-N4-cyclopropyl-6-(2-phenylmorpholino)pyrimidine-2,4-diamine]
27 | < 500 | CC(C)c1nc(N)cc(N2CCCC(c3cnc4ccccn34)C2)n1 (single isomer, unassigned) [Compound 142, R or S-6-(3-(imidazo[1,2-a]pyridin-3-yl)piperidin-1-yl)-2-isopropylpyrimidin-4-amine]
28 | > 5000 | Nc1nc2c(c(N3CCCC(c4cnc5ccccn45)C3)n1)CCCN2 (stereo not shown) [Compound 88, 4-(3-(imidazo[1,2-a]pyridin-3-yl)piperidin-1-yl)-5,6,7,8-tetrahydropyrido[2,3-d]pyrimidin-2-amine]
29 | 500 to 5000 | CN(C)CCCNC(=O)c1n[nH]c2ccc(-c3ccc4ncnc(N)c4c3)cc12 [Compound 330, 5-(4-aminoquinazolin-6-yl)-N-(3-(dimethylamino)propyl)-1H-indazole-3-carboxamide]
30 | > 5000 | CNc1cc(N2CCOC(c3ccccc3)C2)nc(N)n1 (single isomer, unassigned) [Compound 108, (R/S)-N4-methyl-6-(2-phenylmorpholino)pyrimidine-2,4-diamine]
31 | < 500 | CN(C)CCNC(=O)c1cc2cc(-c3ccc4ccnc(N)c4c3)ccc2cn1 [Compound 356, 1′-amino-N-(2-(dimethylamino)ethyl)-[6,7′-biisoquinoline]-3-carboxamide]
